Reference: patent US20200331904A1, “3-AMINO-[1,2,4]-TRIAZOLE DERIVATIVES AND THEIR USE FOR CONTROLLING UNDESIRED PLANT GROWTH” (Bayer CropScience Aktiengesellschaft, priority 2017, published 2020)

Legend:
Assay type in all cases: in vivo
[1] = tested on: Amaranthus retroflexus; test: Pre-emergence herbicidal efficacy, AMARE; settings: Table B2, application rate 320 g/ha, scored visually after about 3 weeks vs untreated controls
Text: (§1) C.1 Pre-Emergence Herbicidal Action and Crop Plant Compatibility
(§2) Seeds of monocotyledonous and dicotyledonous weed plants and crop plants are placed in plastic or organic planting pots and covered with soil. The compounds of the invention, formulated in the form of wettable powders (WP) or as emulsion concentrates (EC), are then applied onto the surface of the covering soil as aqueous suspension or emulsion with addition of 0.5% additive at a water application rate of […] (converted). After the treatment, the pots are placed in a greenhouse and kept under good growth conditions for the trial plants. After about 3 weeks, the effect of the preparations is scored visually in comparison with untreated controls as percentages. For example, 100% activity=the plants have died, 0% activity=like control plants.
(§3) ABUTH: Abutilon theophrasti ALOMY: Alopecurus myosuroides AMARE: Amaranthus retroflexus AVEFA: Avena fatua CYPES: Cyperus esculentus ECHCG: Echinochloa crus-galli LOLMU: Lolium multiflorum MATIN: Matricaria inodora PHBPU: Ipomoea purpurea POLCO: Polygonum convolvulus SETVI: Setaria viridis STEME: Stellaria media VERPE: Veronica persica VTOTR: Viola tricolor

[2] = tested on: Matricaria inodora; test: Pre-emergence herbicidal efficacy, MATIN
Text: as §1, §2, §3

[3] = tested on: Polygonum convolvulus; test: Pre-emergence herbicidal efficacy, POLCO; settings: Table B2, application rate 320 g/ha, scored visually after about 3 weeks vs untreated controls
Text: as §1, §2, §3

[4] = tested on: Stellaria media; test: Pre-emergence herbicidal efficacy, STEME
Text: as §1, §2, §3

[5] = tested on: Viola tricolor; test: Pre-emergence herbicidal efficacy, VIOTR
Text: as §1, §2, §3

[6] = tested on: Veronica persica; test: Pre-emergence herbicidal efficacy, VERPE; settings: Table B2, application rate 320 g/ha, scored visually after about 3 weeks vs untreated controls
Text: as §1, §2, §3

[7] = Table B2, application rate 320 g/ha, scored visually after about 3 weeks vs untreated controls
[8] = application rate 320 g/ha, scored visually after about 3 weeks

Compound | Herbicidal efficacy against AMARE [1] [%] | Herbicidal efficacy against MATIN [2, 7] [%] | Herbicidal efficacy against POLCO [3] [%] | Herbicidal efficacy against STEME [4, 7] [%] | Herbicidal efficacy against VIOTR [5, 7] [%] | Herbicidal efficacy against VERPE [6] [%] | Herbicidal efficacy against MATIN [2, 8] [%] | Herbicidal efficacy against STEME [4, 8] [%] | Herbicidal efficacy against VIOTR [5, 8] [%]
c1ccc2c(c1)CCC[C@H]2Nc1nc2n(n1)CCCS2 [Example I-349] | 100 | 100 | 100 | 100 | 100 | 100 |  |  | 
Cc1ccc2c(c1)C(Nc1nc3n(n1)CCC(=O)N3C(C)C)CCC2 (centres unmarked) [Example I-316] |  | 100 | 100 | 100 | 100 | 100 | 100 | 100 | 100
Cc1ccc2c(c1)C(Nc1nc3n(n1)CCCS3(=O)=O)CCC2 (centres unmarked) [Example I-239] | 100 | 100 | 100 | 100 | 100 | 100 |  |  | 
CC1CCc2ccccc2C1Nc1nc2n(n1)CCCCS2(=O)=O (centres unmarked) [Example I-368] | 100 | 100 |  | 100 | 100 | 100 |  |  | 
O=S1(=O)CCCCn2nc(N[C@@H]3CCc4ccccc43)nc21 [Example I-364, N-[(1R)-indan-1-yl]-4,4-dioxo-5,6,7,8-tetrahydro-[1,2,4]triazolo[5,1-b][1,3]thiazepin-2-amine] | 100 | 100 | 100 | 100 | 100 | 100 |  |  | 
Cc1ccc2c(c1)[C@H](Nc1nc3n(n1)CCN(S(=O)(=O)C1CCCC1)C3)CCC2 [Example I-201] | 100 | 90 | 100 | 100 | 100 | 100 |  |  | 
Cc1ccc2c(c1)[C@H](Nc1nc3n(n1)CCN(S(=O)(=O)c1ccccc1Cl)C3)CCC2 [Example I-203] | 100 | 90 | 100 | 100 | 100 | 100 |  |  | 
Cc1ccc2c(c1)C(Nc1nc3n(n1)CCCN3S(=O)(=O)C1CC1)CC2 (centres unmarked) [Example I-336] | 100 | 100 |  | 100 | 100 | 100 |  |  | 
Cc1ccc2c(c1)[C@H](Nc1nc3n(n1)CCN(S(=O)(=O)C1CCCC1)C3)[C@@H](C)C2 [Example I-193] | 100 | 90 | 100 | 100 | 100 | 100 |  |  | 
Cc1ccc2c(c1)C(Nc1nc3n(n1)CCCN3S(C)(=O)=O)CCC2 (centres unmarked) [Example I-329] | 100 | 100 | 100 | 100 | 100 | 100 |  |  | 
CC1CCc2ccccc2C1Nc1nc2n(n1)CCC[S+]2[O-] (centres unmarked) [Example I-362] | 100 | 100 | 100 | 100 | 100 | 100 |  |  | 
Cc1ccc2c(c1)C(Nc1nc3n(n1)CCCN3S(C)(=O)=O)CC2 (centres unmarked) [Example I-301] | 100 | 100 | 80 | 100 | 100 | 90 |  |  | 
Cc1ccc2c(c1)C(Nc1nc3n(n1)CCCS3)CCC2 (racemic) [Example I-207] | 100 | 100 | 100 | 100 | 100 | 100 |  |  | 
CCN1CCn2nc(N[C@@H]3CCCc4ccc(C)cc43)nc2C1 [Example I-343] | 100 | 100 |  | 100 | 100 | 100 |  |  | 
Cc1ccc2c(c1)C(Nc1nc3n(n1)CCC(=O)N3Cc1ccccc1)CCC2 (centres unmarked) [Example I-315] | 80 | 80 |  | 90 | 100 | 100 |  |  | 
[O-][S+]1CCCn2nc(N[C@@H]3CCCc4ccccc43)nc21 (some centres unmarked) [Example I-361] | 100 | 100 | 100 | 100 | 100 | 100 |  |  | 
CC1CCc2ccccc2C1Nc1nc2n(n1)CCCC[S+]2[O-] (centres unmarked) [Example I-373] | 100 | 100 | 100 | 100 | 100 | 100 |  |  | 
Cc1ccc2c(c1)[C@H](Nc1nc3n(n1)CCN(C(=O)C1CCCCC1)C3)CCC2 [Example I-187] | 100 | 90 | 100 | 100 | 100 | 100 |  |  | 
O=S(=O)(C1CC1)N1CCCn2nc(NC3CCCc4ccccc43)nc21 (centres unmarked) [Example I-333] | 100 |  | 100 | 100 | 100 | 100 |  |  | 
CC(=O)N1CCCn2nc(NC3CCc4ccc(C)cc43)nc21 (centres unmarked) [Example I-320] | 90 | 100 |  | 100 | 100 | 100 |  |  | 
[O-][S+]1CCCCn2nc(NC3CCc4ccccc43)nc21 (centres unmarked) [Example I-250] | 100 | 100 | 100 | 100 | 100 | 90 | 100 | 100 | 100
Cc1ccc2c(c1)[C@H](Nc1nc3n(n1)CCCS3(=O)=O)CCO2 [Example I-378] | 100 | 100 | 100 | 100 | 100 | 100 |  |  | 
